Experimental findings from ChEMBL document CHEMBL5303304, “EUbOPEN Chemogenomics Library - IncuCyte” (2023) are described below.

Assay type in all cases: toxicity, cell-based
Data set [1] deals with HEK-293T. Briefly: Incucyte cell viability with HEK293T. To be noted: human, 10 µM, compound concentration 10 uM.
In data set [2] the test system is Fibroblast. Briefly: Incucyte cell viability with human fibroblast. Particulars: 10 µM, compound concentration 10 uM.
The test system of data set [3] is U2OS. Briefly: Incucyte cell viability with U2OS. To be noted: human, 10 µM, compound concentration 10 uM.
Note: unitless GR value; below 1 slowed growth and below 0 cell loss.

Regarding `CS(=O)(=O)c1ccc(-c2cnc(N)c(C(=O)Nc3ccccc3)n2)cc1`, the “Growth Rate” value is given as 0.8 in data set [1] (0 h, replicate number 2); -0.29 in data set [1] (6 h, replicate number 1); -0.17 in data set [1] (6 h, replicate number 2); -0.15 in data set [1] (12 h, replicate number 1); -0.14 in data set [1] (12 h, replicate number 2); 0.01 in data set [1] (18 h, replicate number 1). In addition, the “Growth Rate” value in data set [1] (18 h, replicate number 2) is listed as -0.07; in data set [1] (24 h, replicate number 1), 0.07; in data set [1] (24 h, replicate number 2), 0.05; in data set [2] (0 h, replicate number 1) it was -0.93; in data set [2] (24 h, replicate number 1), 0.85; in data set [2] (24 h, replicate number 2) it was 0.74. The “Growth Rate” value amounted to 0.87 in data set [3] (12 h, replicate number 1); 0.77 in data set [3] (18 h, replicate number 1); 0.93 in data set [3] (18 h, replicate number 2); 0.88 in data set [3] (24 h, replicate number 1); 0.77 in data set [3] (24 h, replicate number 2).
Regarding `Cc1cc(OC2CCS(=O)(=O)CC2)cc(C)c1-c1cccc(COc2ccc(CCC(=O)O)c(F)c2)c1`, the “Growth Rate” value in data set [1] (0 h, replicate number 2) is 0.14; in data set [1] (6 h, replicate number 1), 0.99; in data set [1] (18 h, replicate number 1), 0.99; in data set [1] (24 h, replicate number 1), 0.94; in data set [1] (24 h, replicate number 2) it was 0.96; in data set [2] (0 h, replicate number 1) it was -0.63. The “Growth Rate” value in data set [2] (0 h, replicate number 2) was found to be 0; in data set [2] (12 h, replicate number 1), 0.64; in data set [2] (12 h, replicate number 2) it was 0.88; in data set [2] (18 h, replicate number 1) it was 0.84; in data set [3] (6 h, replicate number 2) it was 0.78; in data set [3] (12 h, replicate number 1), 0.88. The “Growth Rate” value in data set [3] (12 h, replicate number 2) is 0.91; in data set [3] (18 h, replicate number 1), 0.96; in data set [3] (18 h, replicate number 2) it was 0.99; in data set [3] (24 h, replicate number 1), 0.92; in data set [3] (24 h, replicate number 2), 0.87.
Consider `Cn1cc(-c2ccc(-c3cncc(Cl)c3N3CCC4(CCNC4=O)CC3)cc2)cn1`, for which the “Growth Rate” value in data set [1] (0 h, replicate number 2) came out at 0.95; in data set [1] (6 h, replicate number 1), 0.13; in data set [1] (6 h, replicate number 2), 0.24; in data set [1] (12 h, replicate number 1) it was 0.3; in data set [1] (12 h, replicate number 2) it was 0.63; in data set [1] (18 h, replicate number 1), 0.34. Further, the “Growth Rate” value in data set [1] (18 h, replicate number 2) is 0.67; in data set [1] (24 h, replicate number 1), 0.5; in data set [1] (24 h, replicate number 2) it was 0.67; in data set [2] (0 h, replicate number 2) it was -0.3; in data set [2] (6 h, replicate number 1) it was 0.61; in data set [2] (12 h, replicate number 1) it was 0.75. The “Growth Rate” value worked out at 0.56 in data set [2] (18 h, replicate number 1); 0.87 in data set [2] (18 h, replicate number 2); 0.49 in data set [2] (24 h, replicate number 1); 0.8 in data set [2] (24 h, replicate number 2); 0.82 in data set [3] (0 h, replicate number 2); 0.58 in data set [3] (6 h, replicate number 1). Besides, the “Growth Rate” value in data set [3] (12 h, replicate number 1) is 0.59; in data set [3] (18 h, replicate number 1) it was 0.96.
For the molecule `CN(C)C/C=C/C(=O)Nc1ccc(C(=O)Nc2cccc(Nc3ncc(Cl)c(-c4c[nH]c5ccccc45)n3)c2)cc1`, the “Growth Rate” value is reported as -0.53 in data set [1] (0 h, replicate number 2); 0.7 in data set [2] (24 h, replicate number 2); -1 in data set [3] (0 h, replicate number 1); 0.57 in data set [3] (12 h, replicate number 2); 0.29 in data set [3] (18 h, replicate number 1); 0.55 in data set [3] (18 h, replicate number 2). Also, the “Growth Rate” value in data set [3] (24 h, replicate number 1) is given as 0.16; in data set [3] (24 h, replicate number 2) it was 0.28.
As for `CC(C)c1cnc(NC(=O)Cc2ccccc2)s1`, the “Growth Rate” value in data set [1] (0 h, replicate number 2) was 1; in data set [1] (6 h, replicate number 1), 0.76; in data set [1] (6 h, replicate number 2) it was 0.51; in data set [1] (12 h, replicate number 1), 0.86; in data set [1] (12 h, replicate number 2), 0.69; in data set [1] (18 h, replicate number 1), 0.8. Further, the “Growth Rate” value in data set [1] (18 h, replicate number 2) is recorded as 0.68; in data set [1] (24 h, replicate number 1), 0.73; in data set [1] (24 h, replicate number 2), 0.69; in data set [2] (0 h, replicate number 1), -0.99; in data set [2] (6 h, replicate number 2) it was 0.95; in data set [2] (18 h, replicate number 2), 1. Besides, the “Growth Rate” value in data set [2] (24 h, replicate number 1) worked out at 0.92; in data set [2] (24 h, replicate number 2), 0.99; in data set [3] (0 h, replicate number 2) it was 0.72; in data set [3] (6 h, replicate number 1) it was 0.54; in data set [3] (12 h, replicate number 1), 0.87; in data set [3] (12 h, replicate number 2), 0.72. The “Growth Rate” value is given as 0.77 in data set [3] (18 h, replicate number 1); 0.97 in data set [3] (18 h, replicate number 2); 0.89 in data set [3] (24 h, replicate number 1); 0.77 in data set [3] (24 h, replicate number 2).
As to `COc1c(-c2cn(C3CCC(=O)NC3=O)nn2)csc1C(=O)N1CCCC1` (stereo not drawn), the “Growth Rate” value in data set [1] (0 h, replicate number 2) turned out to be 0.78; in data set [1] (6 h, replicate number 1) it was 0.29; in data set [1] (6 h, replicate number 2), 0.71; in data set [1] (12 h, replicate number 1), 0.77; in data set [1] (12 h, replicate number 2), 0.89; in data set [1] (18 h, replicate number 1), 0.73. In addition, the “Growth Rate” value is listed as 0.9 in data set [1] (18 h, replicate number 2); 0.9 in data set [1] (24 h, replicate number 1); 1 in data set [1] (24 h, replicate number 2); -1 in data set [2] (0 h, replicate number 1); 0.73 in data set [2] (6 h, replicate number 2); 0.92 in data set [2] (18 h, replicate number 2). The “Growth Rate” value is 0.97 in data set [2] (24 h, replicate number 2); 0.89 in data set [3] (6 h, replicate number 1); 0.85 in data set [3] (12 h, replicate number 1); 0.92 in data set [3] (18 h, replicate number 1).
In the case of `Cc1cn([C@@H](C)CC#N)c(=O)c2cc(Cn3nc(C(F)F)cc3Cl)nn12`, the “Growth Rate” value was 0.77 in data set [1] (0 h, replicate number 2); 0.53 in data set [1] (6 h, replicate number 1); 0.84 in data set [1] (6 h, replicate number 2); 0.72 in data set [1] (12 h, replicate number 1); 0.81 in data set [1] (12 h, replicate number 2); 0.89 in data set [1] (18 h, replicate number 1). In addition, the “Growth Rate” value is listed as 0.77 in data set [1] (18 h, replicate number 2); 0.92 in data set [1] (24 h, replicate number 1); 0.81 in data set [1] (24 h, replicate number 2); 0.71 in data set [2] (6 h, replicate number 2); 0.66 in data set [2] (12 h, replicate number 2); 0.99 in data set [2] (18 h, replicate number 2). The “Growth Rate” value in data set [2] (24 h, replicate number 1) was 0.85; in data set [3] (6 h, replicate number 1), 0.19; in data set [3] (12 h, replicate number 1) it was 0.51; in data set [3] (12 h, replicate number 2) it was 0.71; in data set [3] (18 h, replicate number 1), 0.6; in data set [3] (18 h, replicate number 2) it was 0.88. The “Growth Rate” value in data set [3] (24 h, replicate number 1) is reported as 0.73; in data set [3] (24 h, replicate number 2), 0.78.
With `Cc1cc(OC2CCS(=O)(=O)CC2)cc(C)c1-c1cccc(COc2ccc(C(=O)O)c(F)c2)c1`, the “Growth Rate” value is listed as 0.65 in data set [1] (0 h, replicate number 2); 0.96 in data set [1] (12 h, replicate number 2); 0.96 in data set [1] (18 h, replicate number 1); 0.88 in data set [1] (18 h, replicate number 2); 0.9 in data set [1] (24 h, replicate number 1); 0.84 in data set [1] (24 h, replicate number 2). Besides, the “Growth Rate” value in data set [2] (0 h, replicate number 1) was -0.85; in data set [2] (6 h, replicate number 1) it was 0.86; in data set [2] (12 h, replicate number 2), 0.57; in data set [2] (24 h, replicate number 2), 0.92; in data set [3] (0 h, replicate number 2) it was 0.93; in data set [3] (6 h, replicate number 1) it was 0.56. Further, the “Growth Rate” value was found to be 0.65 in data set [3] (6 h, replicate number 2); 0.61 in data set [3] (12 h, replicate number 1); 0.49 in data set [3] (12 h, replicate number 2); 0.85 in data set [3] (18 h, replicate number 1); 0.77 in data set [3] (18 h, replicate number 2); 0.98 in data set [3] (24 h, replicate number 1). Besides, in data set [3] (24 h, replicate number 2), the “Growth Rate” value worked out at 0.75.
With `COc1ccc(CC[C@@H](OC(=O)[C@H]2CCCCN2C(=O)[C@@H](c2cc(OC)c(OC)c(OC)c2)C2CCCCC2)c2cccc(OCCN3CCOCC3)c2)cc1OC`, the “Growth Rate” value in data set [1] (0 h, replicate number 2) is on record as -0.05; in data set [1] (12 h, replicate number 2), 0.72; in data set [1] (18 h, replicate number 2), 0.52; in data set [1] (24 h, replicate number 1), 0.74; in data set [1] (24 h, replicate number 2), 0.49; in data set [2] (0 h, replicate number 1) it was -0.89. Further, the “Growth Rate” value in data set [2] (24 h, replicate number 1) is recorded as 0.99; in data set [3] (0 h, replicate number 2) it was -1; in data set [3] (6 h, replicate number 2) it was -0.94; in data set [3] (18 h, replicate number 1) it was 0.98; in data set [3] (18 h, replicate number 2), 0.99; in data set [3] (24 h, replicate number 2), 0.87.
On to `N#Cc1ccc(COc2ccc(Br)cc2CNCCO)cn1.O=CO`, for which the “Growth Rate” value in data set [1] (0 h, replicate number 2) is listed as 0.83; in data set [1] (18 h, replicate number 1) it was 1; in data set [2] (6 h, replicate number 2), 0.73; in data set [2] (12 h, replicate number 1), 0.85; in data set [2] (12 h, replicate number 2), 0.87; in data set [2] (18 h, replicate number 2) it was 0.6. Besides, the “Growth Rate” value in data set [2] (24 h, replicate number 2) worked out at 0.89; in data set [3] (12 h, replicate number 1), 1.
For the molecule `CN(C)C(=O)c1cc2cnc(Nc3ccc(N4CCN(CCCCNC(=O)COc5cccc6c5C(=O)N(C5CCC(=O)NC5=O)C6=O)CC4)cn3)nc2n1C1CCCC1` (stereo not drawn), the “Growth Rate” value is 0.78 in data set [1] (0 h, replicate number 2); 0.52 in data set [1] (6 h, replicate number 1); 0.46 in data set [1] (6 h, replicate number 2); 0.81 in data set [1] (12 h, replicate number 2); 0.88 in data set [1] (18 h, replicate number 1); 0.67 in data set [1] (18 h, replicate number 2). The “Growth Rate” value in data set [1] (24 h, replicate number 1) is listed as 1; in data set [1] (24 h, replicate number 2) it was 0.81; in data set [2] (0 h, replicate number 1) it was -1; in data set [3] (0 h, replicate number 1), -1; in data set [3] (0 h, replicate number 2), 0.74; in data set [3] (6 h, replicate number 2) it was 0.65. Further, the “Growth Rate” value is reported as 0.93 in data set [3] (18 h, replicate number 1) and 0.95 in data set [3] (24 h, replicate number 1).
